Tests used:
[1] = target: T1, human orexin-1 receptor (hOX1R) (Homo sapiens, UniProt O43613); test: Measurement of orexin antagonistic activity (intracellular Ca2+ fluorescence, FDSS) on hOX1R; type: cell-based; settings: CHO cells forcibly expressing hOX1R; Fluo-4AM; ligand peptide (substituted human orexin-A) 300 pM; compound preincubated 30 minutes; read-out: IC50 Value OX1
T1 construct: expressed in transfected cells; host or cells: Chinese hamster ovary (CHO) cells
T1 sequence (O43613 1-425): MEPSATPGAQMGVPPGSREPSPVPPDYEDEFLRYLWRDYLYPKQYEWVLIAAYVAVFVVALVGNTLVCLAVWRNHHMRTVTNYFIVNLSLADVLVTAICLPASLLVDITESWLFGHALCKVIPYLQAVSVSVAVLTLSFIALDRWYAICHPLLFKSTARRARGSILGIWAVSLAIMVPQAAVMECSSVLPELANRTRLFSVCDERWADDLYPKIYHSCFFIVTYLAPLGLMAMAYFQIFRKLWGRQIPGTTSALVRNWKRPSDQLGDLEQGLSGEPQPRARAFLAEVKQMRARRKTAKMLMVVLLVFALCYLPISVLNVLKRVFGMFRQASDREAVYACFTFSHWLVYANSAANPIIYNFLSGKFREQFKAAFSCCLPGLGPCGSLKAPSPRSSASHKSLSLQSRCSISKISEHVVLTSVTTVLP
Summary of the method: (§1)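 CHO cells stably expressing hOX1R or hOX2R, loaded with 0.5 μM Fluo-4AM in HEPES/HBSS buffer with 0.1% BSA and 2.5 mM probenecid, pH 7.4, then preincubated 30 min with compound. Fluorescence recorded each second for 3 min by FDSS; maximum intensity taken as intracellular Ca2+ indicator of antagonism.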

[2] = target: T2, orexin-2 receptor (hOX2R) (Homo sapiens, UniProt O43614); test: Measurement of orexin antagonistic activity (intracellular Ca2+ fluorescence, FDSS) on hOX2R; type: cell-based; settings: CHO cells forcibly expressing hOX2R; Fluo-4AM; ligand peptide (substituted human orexin-A) 3 nM; compound preincubated 30 minutes; read-out: IC50 Value OX2
T2 construct: expressed in transfected cells; host or cells: Chinese hamster ovary (CHO) cells
T2 sequence (O43614 1-444): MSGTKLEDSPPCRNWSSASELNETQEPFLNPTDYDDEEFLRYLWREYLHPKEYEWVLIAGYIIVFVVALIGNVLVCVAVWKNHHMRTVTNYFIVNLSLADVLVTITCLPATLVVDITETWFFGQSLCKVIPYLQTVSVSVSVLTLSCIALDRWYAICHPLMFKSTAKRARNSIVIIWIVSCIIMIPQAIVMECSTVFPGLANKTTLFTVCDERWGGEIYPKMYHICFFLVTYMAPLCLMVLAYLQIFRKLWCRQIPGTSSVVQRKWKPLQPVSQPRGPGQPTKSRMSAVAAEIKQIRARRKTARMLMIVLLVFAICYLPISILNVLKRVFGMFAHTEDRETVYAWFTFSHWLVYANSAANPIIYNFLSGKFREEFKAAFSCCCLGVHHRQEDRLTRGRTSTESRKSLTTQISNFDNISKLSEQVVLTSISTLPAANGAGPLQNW
Summary of the method: as §1

| IC50 [1] | IC50 [2] | Structure (SMILES) |
| --- | --- | --- |
| 6.8 nM | 43.1 nM | CCN(C(=O)c1ccccc1-c1ncccn1)[C@@H](C)Cn1ccc(-c2ccc(F)cn2)n1 [Example 7, N-Ethyl-N-{(2S)-1-[3-(5-fluoropyridin-2-yl)-1H-pyrazol-1-yl]propan-2-yl}-2-(pyrirnidin-2-yl) benzamide] |
| 0.2 nM | 14.4 nM | CCN(C(=O)c1cc(F)ccc1-c1ncccn1)[C@@H](C)Cn1ccc(-c2ccc(F)cc2)n1 [Example 11, N-Ethyl-5-fluoro-N-[(2S)-1-[3-(4-fluorophenyl)-1H-pyrazol-1-yl]propan-2-yl}-2-(pyrimidin-2-yl) benzamide] |
| 9.3 nM | 108 nM | CCN(C(=O)c1cc(C)ccc1-n1nccn1)[C@@H](C)Cn1cc(-c2ccccn2)nn1 [Example 94, N-Ethyl-5-methyl-N-{(2S)-1-[4-(pyridin-2-yl)-1H-1,2,3-triazol-1-yl]propan-2-yl}-2-(2H-1,2,3-triazol-2-yl) benzamide] |
| 1.3 nM | 25.9 nM | Cc1ccc(-n2nccn2)c(C(=O)N(CCO)[C@@H](C)Cn2ccc(-c3ccc(F)cn3)n2)c1 [Example 44, N-{(2S)-1-[3-(5-Fluoropyridin-2-yl)-1H-pyrazol-1-yl]propan-2-yl}-N-(2-hydroxyethyl)-5-methyl-2-(2H-1,2,3-triazol-2-yl)benzamide] |
| 0.9 nM | 28.2 nM | CCN(C(=O)c1cc(C)ccc1-c1ncccn1)[C@@H](C)Cc1noc(-c2ccc(F)cn2)n1 [Example 48, N-Ethyl-N-{(2S)-1-[5-(5-fluoropyridin-2-yl)-1,2,4-oxadiazol-3-yl]propan-2-yl}-5-methyl-2-(pyrimidin-2-yl)benzamide] |
| 0.7 nM | 3.3 nM | CCN(C(=O)c1cc(C)ccc1-n1nccn1)[C@@H](C)Cc1noc(-c2ccc(F)cc2)n1 [Example 61] |
| 0.2 nM | 12.8 nM | CCN(C(=O)c1ccccc1-c1ncccn1)[C@@H](C)Cn1ccc(-c2ccc(F)cc2)n1 [Example 10, N-Ethyl-N-[(2S)-1-[3-(4-fluorophenyl)-1H-pyrazol-1-yl]propan-2-yl)-2-(pyrimidin--2-yl) benzamide] |
| 5.1 nM | 1080 nM | CCN(C(=O)c1cc(F)ccc1-n1nccn1)[C@@H](C)Cc1noc(-c2ccc(F)cn2)n1 [Example 57, N-Ethyl-5-fluoro-N-{(2S)-1-[5-(5-fluoropyridin-2-yl)-1,2,4-oxadiazol-3-yl]propan-2-yl}-2-(2H-1,2,3-triazol-2-yl) benzamide] |
| 1.8 nM | 1.5 nM | CCN(C(=O)c1cc(C)ccc1-n1nccn1)[C@@H](C)Cn1cc(-c2ccc(F)c(OC)c2)nn1 [Example 99, N-Ethyl-N-{(2S)-1-[4-(4-fluoro-3-methoxyphenyl)-1H-1,2,3-triazol-1-yl]propan-2-yl}-5-methyl-2-(2H-1,2,3-triazol-2-yl)benzamide] |
| 9.8 nM | 41.4 nM | CC[C@@H](Cn1ccc(-c2ccc(F)cn2)n1)N(C)C(=O)c1cc(C)ccc1-n1nccn1 [Example 24, N-{(2S)-1-[3-(5-Fluoropyridin-2-yl)-1H-pyrazol-1-yl]butan-2-yl}-N,5-dimethyl-2-(2H-1,2,3-triazol-2-yl) benzamide] |
| 9.8 nM | 334 nM | CCN(C(=O)c1cc(F)ccc1-c1ncccn1)[C@@H](C)Cn1cc(-c2ccc(F)cn2)cn1 [Example 34, N-Ethyl-5-fluoro-N-{(2S)-1-[4-(5-fluoropyridin-2-yl)-1H-pyrazol-1-yl]propan-2-yl}-2-(pyrimidin-2-yl)benzamide] |
| 9.8 nM | 283 nM | CCN(C(=O)c1cc(F)ccc1-n1nccn1)[C@@H](C)Cn1nnc(-c2ccc(F)cn2)n1 [Example 87, N-Ethyl-5-fluoro-N-{(2S)-1-[5-(5-fluoropyridin-2-yl)-2H-tetrazol-2-yl]propan-2-yl}-2-(2H-1,2,3-triazol-2-yl)benzamide] |
| 13.4 nM | 41.2 nM | CCN(C(=O)c1cc(C)ccc1-c1ncccn1)[C@@H](C)Cn1nnc(-c2ccc(F)cn2)n1 [Example 88, N-Ethyl-N-{(2S)-1-[5-(5-fluoropyridin-2-yl)-2H-tetrazol-2-yl]propan-2-yl}-5-methyl-2-(pyrimidin-2-yl)benzamide] |
| 18.6 nM | 89.3 nM | Cc1ccc(-n2nccn2)c(C(=O)N(C)[C@@H](C)Cn2cc(-c3ccc(F)cc3)cn2)n1 [Example 28, N-{(2S)-1-[4-(4-Fluorophenyl)-1H-pyrazol-1-yl]propan-2-yl}-N,6-dimethyl-3-(2H-1,2,3-triazol-2-yl)pyridine-2-carboxamide] |
| 1.7 nM | 67 nM | C[C@@H](Cn1ccc(-c2ccc(F)cn2)n1)N(C)C(=O)c1ccccc1-c1ncccn1 [Example 4, N-[(2S)-1-[3-(5-Fluoropyridin-2-yl)-1H-pyrazol-1-yl]propan-2-yl]-N-methyl-2-(pyrimidin-2-yl)benzamide] |
| 1.7 nM | 55.9 nM | CCN(C(=O)c1nc(C)ccc1-n1nccn1)[C@@H](C)Cn1cc(-c2ccc(F)cc2)cn1 [Example 26, N-Ethyl-N-{(2S)-1-[4-(4-fluorophenyl)-1H-pyrazol-1-yl]propan-2-yl}-6-methyl-3-(2H-1,2,3-triazol-2-yl)pyridine-2-carboxamide] |
| 160 nM | 8370 nM | CCN(C(=O)c1cc(C)ccc1-n1nccn1)[C@@H](C)Cn1cc(-c2ccc(OC)cc2)nn1 [Example 96, N-Ethyl-N-{(2S)-1-[4-(4-methoxyphenyl)-1H-1,2,3-triazol-1-yl]propan-2-yl}-5-methyl-2-(2H-1,2,3-triazol-2-yl)benzamide] |
| 1.1 nM | 32.2 nM | CCN(C(=O)c1nc(C)ccc1-n1nccn1)[C@@H](C)Cc1noc(-c2ccc(F)cc2)n1 [Example 49, N-Ethyl-N-{(2S)-1-[5-(4-fluorophenyl)-1,2,4-oxadiazol-3-yl]propan-2-yl}-6-methyl-3-(2H-1,2,3-triazol-2-yl)pyridine-2-carboxamide] |
| 2.1 nM | 10.1 nM | CCN(C(=O)c1cc(F)ccc1-c1ncccn1)[C@@H](C)Cn1ccc(-c2ccc(F)c(F)c2)n1 [Example 17, N-{(2S)-1-[3-(3,4-Difluorophenyl)-1H-pyrazol-1-yl]propan-2-yl}-N-ethyl-5-fluoro-2-(pyrimidin-2-yl)benzamide] |
| 2.2 nM | 66.9 nM | COCCN(C(=O)c1cc(C)ccc1-n1nccn1)[C@@H](C)Cn1nnc(-c2ccc(F)cc2)n1 [Example 63, N-{(2S)-1-[5-(4-Fluorophenyl)-2H-tetrazol-2-yl]propan-2-yl}-N-(2-methoxyethyl)-5-methyl-2-(2H-1,2,3-triazol-2-yl)benzamide] |
